Assays:
[1] = system: S30 extract peptidyltransferase; test: Peptidyltransferase gel-shift assay in the presence of antibiotics, S30 extract; format: biochemical, E. coli; conditions: 100 μM antibiotic, substrates CCA-Met-Biotin and 32P-CCA-NH-Phe, 37° C.
Method: (§1) Assay reactions were carried out with: 50S or 70S subunits from the bacterial ribosome (prepared from E. coli MRE600), or S30 extract (purchased from Promega); 50 μM CCA-Met-Biotin or tRNA-Met-Biotin; trace amounts of ^32P-CCA-NH-Phe (˜0.5 nM); 100 μM antibiotic in the presence of 50 mM Tris•HCl (pH 7.5); 35 mM MgCl2; 100 mM NH4Cl; and 1000 mM KCl, at 37° C. For each reaction, the same amount of 50S or 70S (10 pmol) was included, but the S30 concentration was not determined.
(§2) Reactions were initiated by addition of ^32P-CCA-NH-Phe. A 1-μL aliquot of the reaction mixture was removed at specific time points, quenched with 2 μL quench buffer (formamide +0.05% xylene cyanol), and loaded on 24%/7.5 M urea polyacrylamide denaturing gel.
(§3) The substrates used in these reactions were CCA-Met-Biotin and ^32P-CCA-NH-Phe. The lower band corresponds to the labeled ^32P-CCA-NH-Phe and the top band is the dipeptide product (^32P-CCA-NH-Phe-Met-Biotin).

[2] = system: 70S ribosome peptidyltransferase; test: Peptidyltransferase activity assay in the presence of antibiotics, 70S ribosome; conditions: 100 μM antibiotic; 70S versus 50S
Method: as §1, §2, §3
(§4) Reaction conditions for these studies were the same as described above.

[3] = system: 50S ribosome peptidyltransferase; test: Peptidyltransferase activity assay in the presence of antibiotics, 50S ribosome; conditions: 100 μM antibiotic, tRNA-Met-Biotin versus CCA-Met-Biotin substrate
Method: as §1
Reactions were initiated by addition of ^32P-CCA-NH-Phe. A 1-μL aliquot of the reaction mixture was removed at specific time points, quenched with 2 μL quench buffer (formamide +0.05% xylene cyanol), and loaded on 24%/7.5 M urea polyacrylamide denaturing gel. Reaction products were quantitated with a Molecular Dynamics PhosphorImager™, and the fraction of individual product relative to total reactants was plotted against time (see FIGS. 11-14).
as §4

Compound | Inhibition of peptidyltransferase activity (gel-shift, FIG. 10A) [1] | Inhibition of 70S reactions compared with 50S reactions [2] | Effect on activity of 50S-tRNA compared with 50S-CCA [3]
O=C(N[C@H](CO)[C@H](O)c1ccc([N+](=O)[O-])cc1)C(Cl)Cl [chloramphenicol] | greatly inhibited |  | 
CC[C@H]1OC(=O)[C@H](C)[C@@H](O[C@H]2C[C@@](C)(OC)[C@@H](O)[C@H](C)O2)[C@H](C)[C@@H](O[C@@H]2O[C@H](C)C[C@H](N(C)C)[C@H]2O)[C@](C)(O)C[C@@H](C)C(=O)[C@H](C)[C@@H](O)[C@]1(C)O [erythromycin] | greatly inhibited | much more strongly than 50S reactions | 
COc1ccc(C[C@H](N)C(=O)N[C@H]2[C@@H](O)[C@H](n3cnc4c(N(C)C)ncnc43)O[C@@H]2CO)cc1 [puromycin] | does not significantly inhibit | much more strongly than 50S reactions | 
CSC[S@+]([O-])C[C@H](CO)NC(=O)/C=C/c1c(C)[nH]c(=O)[nH]c1=O [sparsomycin] | greatly inhibited |  | much less unaffected than that of 50S-CCA
[H]/N=C(/N)N[C@H]1[C@H](O)[C@@H](O)[C@H](O[C@@H]2O[C@@H](C)[C@](O)(C=O)[C@H]2O[C@@H]2O[C@@H](CO)[C@H](O)[C@@H](O)[C@@H]2NC)[C@@H](N/C(N)=N\[H])[C@@H]1O [streptomycin] | not inhibited |  | 

From patent publication US20040126792A1, “Synthesis and applications of trinucleotide pCpCpA-3'-NH-aminoacyl derivatives” (priority 2002, published 2004)
